Assay results as given in patent US11970504B1, “2-benzo-[3,4-b] quinolino-{b,g]indeno [1′,2′:3,4] fluoreno-[1,2-d] Oxonine-5,11,16,21-tetraone as an antimicrobial compound” (KING FAISAL UNIVERSITY, priority 2023, dated 2024).

Legend:
Staphylococcus aureus = experiment: Antimicrobial screening by agar dilution, Staphylococcus aureus; assay type: cell-based; conditions: after 10, 20, 40 and 60 minutes at all dilutions 1:100, 1:200, 1:400, 1:800
Description: (§1) The antibacterial properties of the synthesized compound 2-benzo-[3,4-b]quinolino-[b,g]indeno[1′,2′:3,4]fluoreno-[1,2-d]oxonine-5,11,16,21-tetraone were studied by the method of agar dilution. Test solutions of each compound was prepared in concentration of 1% using dimethylformamide as a solvent then they are diluted in physiological solution to obtain the final experimental dilutions 1:100, 1:200, 1:400, 1:800. The effect of these substances are compared with furacillin in a controllable study. The testing microbes used were gram positive bacteria Staphylococcus aureus, gram negative bacteria Pseudomonas aeruginosa and Escherichia co/i and Candida albicans fungus. The experiments used for this survey were meat-pentonlu agar (EPA) for cultivation of bacteria and Saburo environment for the fungus. Each experiment used 1 mL of test solution on each plate […]. Two drops of emulsified with microbes feel were added. All experimental samples were taken from the agar after 10, 20, 40, 60 minutes in the environment on the basis of Patrk planted. The bacteria were cultivated at a temperature of 37° C. for 1 day and the mushroom was kept in a thermostat for […] at a temperature of 28° C. Then results were checked.

Escherichia coli = experiment: Antimicrobial screening by agar dilution, Escherichia coli; assay type: cell-based; conditions: after 10, 20, 40 and 60 minutes at all dilutions 1:100, 1:200, 1:400, 1:800
Description: as §1

Pseudomonas aeruginosa = experiment: Antimicrobial screening by agar dilution, Pseudomonas aeruginosa; assay type: cell-based; conditions: after 10, 20, 40 and 60 minutes at all dilutions 1:100, 1:200, 1:400, 1:800
Description: as §1

Candida albicans = experiment: Antimicrobial screening by agar dilution, Candida albicans; assay type: cell-based; conditions: after 10, 20, 40 and 60 minutes at all dilutions 1:100, 1:200, 1:400, 1:800
Description: as §1

- melting point: 251 °C
Compound: O=C1Oc2nc3ccccc3cc2-c2c(c3c4ccccc4c(=O)c3c3c2c(=O)c2ccccc23)C(=O)c2ccccc21 [2-benzo-[3,4-b]quinolino-[b,g]indeno[1′,2′:3,4]fluoreno-[1,2-d]oxonine-5,11,16,21-tetraone]
- inhibition activity (Staphylococcus aureus): highest inhibition activity
- inhibition activity (Escherichia coli): highest inhibition activity
- inhibition activity (Pseudomonas aeruginosa): highest inhibition activity
- inhibition activity (Candida albicans): highest inhibition activity
